Assay results: US11229635B2, “Method of treating fibrosis” (BCN Biosciences L.L.C., priority 2016, dated 2022)

Columns and labels:
[1] = system: canonical Wnt-β catenin signaling; assay: TCF/LEF luciferase reporter assay in HEK293 cells; type: cell-based; details: 28 μM, 24 h, vs vehicle treated cells
Method: LiCl (10 mM) treatment was used as positive control for luciferase activity. Luciferase activity was determined after 24 h using a Dual-Luciferase® Reporter Assay System (Promega) as per manufacturer's protocol. HEK293 cells containing a FOPFlash construct were used as a negative control.

immature myeloid cells = assay: Immature myeloid cells after WBI and WTLI; type: in vivo
From the text: 2. […] They co-express CD11b, Ly6G, and Ly6C, and are required for mitigation by BCN-512, at least after WBI.

[2] = system: radiation-induced pneumonitis and lung fibrosis; assay: Thoracic lung irradiation: survival, lung histology, fibrosis; type: in vivo, mouse
Method: Our goal is to develop a drug to protect lung from ionizing radiation that is administered subcutaneously and has a favorable risk/benefit profile when administered 24 hours or later after radiation exposure. The drug, BCN 512, originally discovered in the UCLA CMCR, is a novel drug that emerged from high-throughput screening of small molecule libraries, and is now under investigation as a radiation injury mitigator. In our efforts to develop the drug as a lung MCM to treat the Delayed Effects of Acute Radiation Exposure (DEARE), we use the C57BL/6 and C3H mouse models. These models appear to recapitulate human lung fibrosis and pneumonitis, respectively, based upon the distinct sensitivity of the two strains (1, 2).
Radiation fibrosis is a progressive, dose-related, late complication of radiation exposure, with animals and humans surviving for some time with non-lethal damage. […] 512 works by altering the inflammatory infiltrate into the lung.
A: Lung histology of C57BL/6 mice receiving local thoracic radiation (radiation of the lung area) presenting a focal area of increased cellularity and edema on the upper left quadrant. Adjacent to this is increased cellularity (the lacey patterning). The lower right quadrant, emphysema is present with large clear areas indicating where alveoli have collapsed to present large open areas. B. Histopathology of C57BL/6 mouse lung under identical radiation treatment as A, but also treated with 5 mg/kg BCN512 once per day every 24 hours for 5 doses.
In both lobes, significant collapse of alveoli can be seen along with hyper cellularity (dark areas) and pronounced emphysema (large open areas) presenting fibrosis. C, D are separate lobes from the same animal treated identically as above but receiving BCN512 at 5 mg/kg daily for 5 days after 14.5Gy local thoracic radiation.

[3] = system: human A549 adenocarcinoma cells; assay: A549 xenograft lung colony model in nude mice; type: in vivo; details: 20 mg/kg sc once daily for 5 days, with or without 4 Gy LTI x 3, day 72
Method: LTI alone decreased the number of co […] lonies by 40%. Extensive analysis of the drug doses that would be optimal for exerting effects on tumors in the radiation setting are still needed, but there is no evidence for enhanced tumor growth as a result of radiation treatment with drug, and in fact exactly the opposite. […] Thirty-two nude mice were injected intravenously with 5×10^4 human A549 adenocarcinoma cells on day 1. The drug was administered starting at day 3; 20 mg/kg BCN512 was injected subcutaneously once daily for 5 days. Fractionated radiation was started on day 4, with 4 Gy LTI administered daily for 3 days. Tumors developed very slowly, so the mice were sacrificed on day 72 and the number of nodules in the lungs were counted. There was considerable variation in the irradiated group, with a tendency for lung irradiation to increase the number of tumor colonies. This is not a unique observation that may be ascribed to radiation-induced myeloid cell mobilization.

[4] = Pharmacokinetic profile after sc injection; type: in vivo; details: mouse, plasma; C57BL/6 male mice, 10 mg/kg sc, low % deoxycholate formulation
Method: FIG. 6A: Pharmacokinetic profile for C57BL/6 male mice receiving a 10 mg/kg sc injection of 512 in a low % deoxycholate formulation.
Because the side effects of Cremophor are undesirable for an MCM candidate, alternative formulations are being tested for further development of 512 for the lung DEARE indication.

[5] = system: radiation dermatitis (erythema, edema); assay: Draize scoring of dermal radiation sites, dermal dosing 10 mg/mL Day 0 to 6; type: in vivo; details: Avg of Days 1-6 and 8
Lewis lung (LLC) tumors = assay: Lewis lung (LLC) artificial metastasis model, lung tumor colonies; type: in vivo, C57Bl/6 and C3H mice
Method: One of the major concerns of the Food and Drug Administration for the application of radiation mitigators in RT is that if an agent can protect normal tissue from radiation damage, it may also protect tumor tissues. […] The syngeneic model of artificial metastasis used Lewis lung (LLC) tumors, and since LLC also grow in C3H mice, this could be employed as an allogeneic model. C57B1/6 and C3H mice were injected i.v. with 5×10^4 tumor cells. Subcutaneous drug injections were started on day +3 when the tumors were established in the lung in order to bias the experiment in favor of tumor growth promotion. The dose regimen was arbitrarily assigned to a dose of 20 mg/kg for 5 days. LTI was started on day 4, with 4 Gy doses administered daily for 3 days. This is higher than conventional 2 Gy to compensate for the more rapid growth of murine tumors, but is still well within the range used clinically in hypofractionated therapy.

[6] = system: inflammatory peritoneal macrophages; assay: Cytokine release by LPS-stimulated inflammatory peritoneal macrophages; type: cell-based; details: stimulation with LPS in vitro
From the text: Because of the focus on lung fibrosis, we examined the effects of irradiation on macrophages in terms of their ability to modulate fibroblast responses. […] In addition, BCN-512 blocks the ability of irradiated macrophages to stimulate fibroblast proliferation. The ability of BCN-512 to reprogram macrophages is likely highly relevant to its ability to mitigate radiation induced fibrosis and tissue damage

O=[N+]([O-])c1ccc(S(=O)(=O)N2CCN(c3ccccc3)CC2)cc1 [BCN512, 1-[(4-nitrobenezene)sulfonyl]-4-phenyl piperazine]
luciferase activity [1]: significantly increased luciferase activity
number of immature myeloid cells (CD11b, Ly6G, Ly6C) (immature myeloid cells): greatly increases
lung fibrosis histology ([2]; 14.5Gy local thoracic radiation, 5 mg/kg daily for 5 days, Day 120): Absent are the large lesions and pronounced fibrosis
overall survival from pneumonitis and lung fibrosis ([2]; 18 Gy whole thoracic lung irradiation, 5 mg/Kg sc in Cremophor days 1-5, at 90 days and 160): improved overall survival
lung histopathology ([2]; C57BL/6 mice, 14.5Gy local thoracic radiation, 5 mg/kg once per day for 5 doses): Lung tissue is normal with no evident emphysema or edema or hyper cellularity or immune infiltrate
development of radiation fibrosis (late disease) ([2]; after 14 Gy, acute delivery (FIG. 18)): mitigates against the development of this late disease
inflammatory macrophage content and phenotypic markers in the lung ([2]; after LTI, day 150): decrease in inflammatory macrophage content and phenotypic markers
mature macrophage cell content in lung ([2]; day 160 after LTI): greatly decreased
number of tumor colonies (lung nodules) [3]: did not increase the number of tumor colonies
Cmax [4]: 132 ng/mL
Tmax [4]: 2 h
Average Draize score Edema [5]: 0
Average Draize score Edema Site 2 [5]: 0
Average Draize score Edema Site 3 [5]: 0.5714
Average Draize score Edema Site 4 [5]: 0
Average Draize score Edema Site 5 [5]: 0.8571
Average Draize score Edema Site 6 [5]: 0
Average Draize score Erythema Site 2 [5]: 0.4286
Average Draize score Erythema Site 3 [5]: 1.429
Average Draize score Erythema Site 4 [5]: 0.1429
Average Draize score Erythema Site 5 [5]: 1.571
Average Draize score Erythema Site 6 [5]: 0.8571
lung tumor colony size (Lewis lung (LLC) tumors; both strains, vs control): smaller in size than control
decrease of the number of lung tumor colonies (Lewis lung (LLC) tumors; day 14, 20 mg/kg sc for 5 days, both C3H and C57 mouse strains, P<0.05): 20%
amount of pro-inflammatory cytokines released [6]: decreases
